# Laboratory results from patent US20240246931A1, “COMPOUNDS AS PD1/PD-L1 INHIBITORS AND METHODS THEREOF” (JUBILANT PRODEL LLC, priority 2021, published 2024).
# Target: T1, PD-1/PD-L1 interaction (Homo sapiens, UniProt Q9NZQ7)
# T1 construct: purchased CisBio 63ADK000CPAPEG
# Test: PD-1/PD-L1 HTRF binding assay (CisBio kit)
# Conditions: HTRF PD1/PD-L1 inhibition assay
# Protocol: PD-L1 Enzyme Assay: Homogenous Time-Resolved Fluorescence (HTRF) Binding Assay
# All binding studies were performed using PD-1/PD-L1 Binding Assay Kit from CisBio (Catalog #63ADK000CPAPEG), according to the manufacturer's protocol. The interaction between Tag1-PD-1 and […] was detected by anti-Tag1-Eu^3+ (HTRF donor) and anti-Tag2-XL665 (HTRF acceptor). When the donor and acceptor antibodies were brought to close proximity due to PD-1 and PD-L1 binding, excitation of the donor antibody triggered fluorescent resonance energy transfer (FRET) towards the acceptor antibody, which in turn emitted specifically at 665 nm. This specific signal is positively proportional to PD-1/PD-L1 interaction. The compounds blocking PD-1/PD-L1 interaction will cause a reduction in HTRF signal. The necessary reagents were mixed in the following order: 2 μL compounds (or diluents buffer), 4 μL PD-L1 protein, 4 μL PD-1 protein. After an incubation of 15 minutes, 5 μL of anti-Tag1-Eu^3+ and 5 μL of anti-Tag2-XL665 were added. The plate was sealed and incubated at room temperature for 1 h. The fluorescence emission was read at two different wavelengths (665 nm and 620 nm) on a BMG PheraStar® multi-plate reader.
# Results were calculated from the 665 nm and 620 nm fluorescence signal and expressed in HTRF ratio=(665 nm/620 nm)×10^4.
# Compounds having IC50<100 nM are designated as “A”; 100-500 nM are designated as “B”; and >500 nM are designated as “C” respectively.
# T1 sequence (Q9NZQ7 19-238 limits assumed): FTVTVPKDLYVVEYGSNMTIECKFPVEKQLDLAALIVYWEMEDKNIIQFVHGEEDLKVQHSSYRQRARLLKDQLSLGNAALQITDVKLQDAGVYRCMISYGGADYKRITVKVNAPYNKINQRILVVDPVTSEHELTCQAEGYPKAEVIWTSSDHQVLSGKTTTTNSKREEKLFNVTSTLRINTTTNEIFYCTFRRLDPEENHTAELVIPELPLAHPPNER
row,Compound,IC50
1,"Cc1c(COc2cc(OCc3cncc(C#N)c3)c(CN3CC(F)(F)CCC3CO)c3c2CCC3)cccc1-c1ccccc1 (stereo not shown) [Example 12, 5-(((4-((5,5-difluoro-2-(hydroxymethyl)piperidin-1-yl)methyl)-7-((2-methyl-[1,1′-biphenyl]-3-yl)methoxy)-2,3-dihydro-1H-inden-5-yl)oxy)methyl)nicotinonitrile]",0.1 to 0.5 µM
2,"Cc1c(COc2cc(OCc3cncc(C#N)c3)c(CN3CC[C@H](CO)C3)c3c2CCC3)cccc1-c1ccccc1 [Example 18, (S)-5-(((4-((3-(hydroxymethyl)pyrrolidin-1-yl)methyl)-7-((2-methyl-[1,1′-biphenyl]-3-yl)methoxy)-2,3-dihydro-1H-inden-5-yl)oxy)methyl)nicotinonitrile]",< 0.1 µM
3,"Cc1c(COc2cc(OCc3cncc(C#N)c3)c(CN3CCC[C@@H]3CO)c3c2CCC3)cccc1-c1ccccc1 [Example 19, (R)-5-(((4-((2-(hydroxymethyl)pyrrolidin-1-yl)methyl)-7-((2-methyl-[1,1′-biphenyl]-3-yl)methoxy)-2,3-dihydro-1H-inden-5-yl)oxy)methyl)nicotinonitrile]",< 0.1 µM
4,"Cc1c(COc2cc(OCc3cncc(C#N)c3)c(CN3CCCCCC3CO)c3c2CCC3)cccc1-c1ccccc1 (stereo not shown) [Example 20, 5-(((4-((2-(hydroxymethyl)azepan-1-yl)methyl)-7-((2-methyl-[1,1′-biphenyl]-3-yl)methoxy)-2,3-dihydro-1H-inden-5-yl)oxy)methyl)nicotinonitrile]",< 0.1 µM
5,"Cc1c(COc2cc(OCc3cncc(C#N)c3)c(CN3CCC[C@@H](CO)C3)c3c2CCC3)cccc1-c1ccccc1 [Example 21, (R)-5-(((4-((3-(hydroxymethyl)piperidin-1-yl)methyl)-7-((2-methyl-[1,1′-biphenyl]-3-yl)methoxy)-2,3-dihydro-1H-inden-5-yl)oxy)methyl)nicotinonitrile 2,2,2-trifluoroacetate]",< 0.1 µM

# Next, values leading:
row,IC50,Compound
1,< 0.1 µM,"Cc1c(COc2cc(OCc3cncc(C#N)c3)c(CN3CCN(C)CC3CO)c3c2CCC3)cccc1-c1ccccc1 (stereo not shown) [Example 13, 5-(((4-((2-(hydroxymethyl)-4-methylpiperazin-1-yl)methyl)-7-((2-methyl-[1,1′-biphenyl]-3-yl)methoxy)-2,3-dihydro-1H-inden-5-yl)oxy)methyl)nicotinonitrile]"
2,< 0.1 µM,"Cc1c(COc2cc(OCc3cncc(C#N)c3)c(CN3CC(CO)C3)c3c2CCC3)cccc1-c1ccccc1 [Example 14, 5-(((4-((3-(hydroxymethyl)azetidin-1-yl)methyl)-7-((2-methyl-[1,1′-biphenyl]-3-yl)methoxy)-2,3-dihydro-1H-inden-5-yl)oxy)methyl)nicotinonitrile]"
3,< 0.1 µM,"Cc1c(COc2cc(OCc3cncc(C#N)c3)c(CN3CC[C@@H](CO)C3)c3c2CCC3)cccc1-c1ccccc1 [Example 15, (R)-5-(((4-((3-(hydroxymethyl)pyrrolidin-1-yl)methyl)-7-((2-methyl-[1,1′-biphenyl]-3-yl)methoxy)-2,3-dihydro-1H-inden-5-yl)oxy)methyl)nicotinonitrile]"
4,< 0.1 µM,"Cc1c(COc2cc(OCc3cncc(C#N)c3)c(CN3CCC[C@H](CO)C3)c3c2CCC3)cccc1-c1ccccc1 [Example 16, (S)-5-(((4-((3-(hydroxymethyl)piperidin-1-yl)methyl)-7-((2-methyl-[1,1′-biphenyl]-3-yl)methoxy)-2,3-dihydro-1H-inden-5-yl)oxy)methyl)nicotinonitrile]"
5,< 0.1 µM,"Cc1c(COc2cc(OCc3cncc(C#N)c3)c(CN3CCC(CO)CC3)c3c2CCC3)cccc1-c1ccccc1 [Example 17, 5-(((4-((4-(hydroxymethyl)piperidin-1-yl)methyl)-7-((2-methyl-[1,1′-biphenyl]-3-yl)methoxy)-2,3-dihydro-1H-inden-5-yl)oxy)methyl)nicotinonitrile]"
